Laboratory results from BindingDB's records for doi:10.1016/j.bmc.2018.06.012 (Astellas Pharma, 2018).

Test: Inhibition of PI3Kdelta in Balb/c mouse splenocytes-derived B cells assessed as reduction in anti-IgM antibody-stimulated B cell proliferation after 2 days alamar blue assay

| Compound | IC50 [nM] |
| --- | --- |
| COc1ncc(-c2cc(O[C@@H]3CCN(Cc4c(C)nn(C)c4C)C3)c3cnn(C)c3n2)cc1NS(C)(=O)=O | 2.1 |
| COc1ncc(-c2cc(OC[C@@H]3CCCN(C(=O)CC4CCOC4)C3)c3cnn(C)c3n2)cc1NS(C)(=O)=O (some centres not stated) | 2.9 |
| COc1ncc(-c2cc(OC3CN(C(=O)C4CCOCC4)C3)c3cnn(C)c3n2)cc1NS(C)(=O)=O | 20 |
| COc1ncc(-c2cc(OC[C@@H]3CCCN(Cc4cn(C)nc4C)C3)c3cnn(C)c3n2)cc1NS(C)(=O)=O | 4.8 |
| COc1ncc(-c2cc(OC[C@H]3CCCN(C(=O)C4CCOCC4)C3)c3cnn(C)c3n2)cc1NS(C)(=O)=O | 7.8 |
| COc1ncc(-c2cc(OC[C@@H]3CCCN(C(=O)C4CCOCC4)C3)c3cnn(C)c3n2)cc1NS(C)(=O)=O | 1.4 |
| COc1ncc(-c2cc(OC[C@@H]3CCCN(CCC4CCOCC4)C3)c3cnn(C)c3n2)cc1NS(C)(=O)=O | 0.41 |

Second part, the molecule after the results:

| IC50 [nM] | Compound |
| --- | --- |
| 2.6 | COc1ncc(-c2cc(O[C@@H]3CCN(C(=O)C4CCOCC4)C3)c3cnn(C)c3n2)cc1NS(C)(=O)=O |
| 4.3 | COc1ncc(-c2cc(OC[C@@H]3CCCN(C(=O)C4CCN(C(C)=O)CC4)C3)c3cnn(C)c3n2)cc1NS(C)(=O)=O |
| 1.5 | COc1ncc(-c2cc(OC[C@@H]3CCCN(CC4(C)COC4)C3)c3cnn(C)c3n2)cc1NS(C)(=O)=O |
| 0.29 | COc1ncc(-c2cc(OC[C@@H]3CCCN(CC4CCOCC4)C3)c3cnn(C)c3n2)cc1NS(C)(=O)=O |
| 1.5 | COc1ncc(-c2cc(OC[C@@H]3CCCN(Cc4c(C)nn(C)c4C)C3)c3cnn(C)c3n2)cc1NS(C)(=O)=O |
